Non-standard residues stand in square brackets, D forms with d. Residues, ends and D or L forms follow the SMILES beside them.
Legend:
[1] = target: SARS-CoV-2 HR1 (Severe acute respiratory syndrome coronavirus 2, UniProt P0DTC2); experiment: biochemical; type: binding
[2] = test system: Vero hACE2 cells
[3] = test system: SARS-CoV-2 (nCoV/USA_WA1/2020)
[4] = target: SARS-CoV-1 HR1 (Severe acute respiratory syndrome coronavirus, UniProt P59594); experiment: biochemical; type: binding
[5] = test system: Vero A2T2 cell line
[6] = test system: HEK293T cells
[7] = test system: SARS-CoV-2; details: 1 h
[8] = test system: human red blood cells
[9] = target: SARS-CoV-1 spike heptad repeat 1 peptide, biotinylated (SARS-CoV-1); experiment: BLI

## CC[C@@H](C)[C@@H](NC(=O)[C@H]1CCCN1C(=O)[C@H]1CCCN1C(=O)[C@H](NC(=O)[C@@H](Cc1c[nH]c2ccccc12)NC(=O)[C@@H](CCCCN)NC(=O)[C@@H](CC(C)C)NC(=O)[C@H](NC(=O)[C@@H](CCCCN)NC(=O)CNC(=O)[C@H](NC(=O)[C@@H](CCCCN)NC(=O)[C@@H](CCCCN)NC(=O)[C@@H](CC(C)C)NC(=O)[C@@H](CCCNC(=N)N)NC(=O)[C@@H](CCCCN)NC(=O)[C@@H](CCCNC(=N)N)NC(=O)[C@H](NC(=O)[C@@H](CCCCN)NC(=O)[C@@H](CCCCN)NC(=O)[C@@H](CCCNC(=N)N)NC(=O)[C@@H](CC(C)C)NC(=O)[C@@H](CCCNC(=N)N)NC(=O)[C@@H](CCCNC(=N)N)NC(=O)[C@@H](Cc1ccccc1)NC(=O)[C@@H](CCCNC(=N)N)NC(=O)CNC(=O)[C@H](N)C(C)C)[C@H](C)O)[C@H](C)CC)C(C)C)[C@H](C)CC)C(=O)N[C@@H](C(=O)NCC(=O)N[C@H](CO)C(=O)N[C@@H](C(=O)N1CCC[C@@H]1C(=O)N[C@H](CC(C)C)C(=O)NCC(=O)N[C@H](CO)C(=O)NCC(=O)O)[C@H](C)CC)C(C)C [D-Yongshi] (H-[dV]G[dR][dF][dR][dR][dL][dR][dK][dK][dT][dR][dK][dR][dL][dK][dK][dI]G[dK][dV][dL][dK][dW][dI][dP][dP][dI][dV]G[dS][dI][dP][dL]G[dS]G-OH; N-terminus and C-terminus assumed)
[1]
  Kd: > 100 µM
[2]
  cytotoxicity compared with parent or control peptide (in words): greatly increased cytotoxicity
[3]
  SARS-CoV-2 inhibition by D-enantiomer (in words): only observed at concentrations that also induced substantial cell death
[4]
  Kd: > 100 µM

## CC[C@H](C)[C@H](NC(=O)[C@@H](NC(=O)[C@@H](N)CO)[C@@H](C)CC)C(=O)N[C@@H](CC(N)=O)C(=O)N[C@@H](Cc1ccccc1)C(=O)N[C@@H](CCC(=O)O)C(=O)N[C@@H](CCCCN)C(=O)N[C@@H](CC(C)C)C(=O)O [OVA, reference compound]
[2]
  Vero TD50 48 h: > 50 µM
[5]
  Vero TD50 24 h: > 400 µM
[6]
  HEK293T TD50: > 50 µM

## CC[C@H](C)[C@H](NC(=O)[C@H](CCCCN)NC(=O)[C@H](CCCCN)NC(=O)[C@H](CC(C)C)NC(=O)[C@H](CCCNC(=N)N)NC(=O)[C@H](CCCCN)NC(=O)[C@H](CCCNC(=N)N)NC(=O)[C@@H](NC(=O)[C@H](CCCCN)NC(=O)[C@H](CCCCN)NC(=O)[C@H](CCCNC(=N)N)NC(=O)[C@H](CC(C)C)NC(=O)[C@H](CCCNC(=N)N)NC(=O)[C@H](CCCNC(=N)N)NC(=O)[C@H](Cc1ccccc1)NC(=O)[C@H](CCCNC(=N)N)NC(=O)CNC(=O)[C@@H](N)C(C)C)[C@@H](C)O)C(=O)NCC(=O)N[C@@H](CCCCN)C(=O)N[C@H](C(=O)N[C@@H](CC(C)C)C(=O)N[C@@H](CCCCN)C(=O)N[C@@H](Cc1c[nH]c2ccccc12)C(=O)N[C@H](C(=O)N1CCC[C@H]1C(=O)N1CCC[C@H]1C(=O)N[C@H](C(=O)N[C@H](C(=O)NCC(=O)N[C@@H](CO)C(=O)N[C@H](C(=O)N1CCC[C@H]1C(=O)N[C@@H](CC(C)C)C(=O)NCC(=O)N[C@@H](CS)C(=O)NCC(=O)O)[C@@H](C)CC)C(C)C)[C@@H](C)CC)[C@@H](C)CC)C(C)C [PMAP-36R] (H-VGRFRRLRKKTRKRLKKIGKVLKWIPPIVGSIPLGCG-OH)
[7]
  SARS-CoV-2 inhibition at 50 µM: > 50%
[8]
  hemolytic activity (in words): considerable hemolytic activity
[2]
  Vero TD50 48 h: 23.47 µM
[6]
  HEK293T TD50: 24.61 µM

## SARS-CoV-2 spike heptad repeat 2 peptide
[9]
  Kd: 59.5 µM

Source: paper PMC10480232 (Scientific Reports, 2023)
